Experimental data taken from patent US20040197932A1, “Bio-vehicle, biosensor and biotransducer system” (priority 2003, published 2004).

Test system: major urinary protein (MUP)
Assay: QCM ligand-binding test: shift of resonant frequency on binding of evaporated ligand to immobilized MUP
Parameters: species or system mouse
Settings: MUP immobilized on 10 MHz AT-cut QCM chip; odorant sample evaporated at 50° C. and pumped into detection chamber
Experimental: The preferred electronic nose technology of the present invention is piezoelectric-based. Measurements are performed by detecting the binding of analytes (ligands) onto the sensing elements immobilized on piezoelectric materials, e.g., quartz crystal. The adsorption of ligand induces a shift in the oscillation frequency proportional to the mass of the encountered ligand. The operating performance of the present invention is described as bellow:
Gold electrodes of quartz crystal microbalance (QCM) surface are cleaned by immersing in 1.2 N NaOH and then in 1.2 N HCl. After rinsing and drying, the QCM electrodes are soaked in 1 mM 2-aminoethanethiol/DMSO solution for 12 hours and washed by double distilled water for 10 min. Then the QCM electrodes are dried in oven and dripped with 4 μl of 2.5% glutaldehyde for 1 hour. Two μl of 1% polyethylenimine/methanol (PEI/MeOH) solution are added onto activated surface of QCM in a closed chamber at room temperature for 12 hours. Finally, the QCM chips are washed two times and dried in oven.
Activated QCM chips are dipped in 2.5% glutaldehyde solution for 1 hour, and then MUP solution (20 μg/ml in 10 mM phosphate buffer, pH 7.4) are added and kept for 1 hour. Blocking the activated surface of QCM chips is performed by 100 mM glycine.
A sample is respectively applied in a syringe and kept in an oven at 50° C. An AT-cut QCM device with basic resonant frequency of 10 MHz is employed to determine the adsorption of odorant vapor. The evaporated odorant sample is pumped into the detection chamber of QCM and the shift of resonant frequency is recorded.
A variety of ligands are surveyed according to the above procedures. Table I lists the changes of signal in frequency upon the bindings of different ligands, including phenylacetate, propylbutyrate, hexylbutyrate, benzylbutyrate, propyltiglate, hexyltiglate, and benzyltiglate.

Change of Signal (in frequency f) | Compound
43 | CCCC(=O)OCc1ccccc1 [benzylbutyrate]
23 | CCCCCCOC(=O)CCC [hexylbutyrate]
55 | C/C=C(\C)C(=O)OCCCCCC [hexyltiglate]
29 | C/C=C(\C)C(=O)OCCC [propyltiglate]

More lines, now with the values behind:

Compound | Change of Signal (in frequency f)
C/C=C(\C)C(=O)OCc1ccccc1 [benzyltiglate] | 43
CCCOC(=O)CCC [propylbutyrate] | 26
